System: apyrase
Experiment: Screen for apyrase inhibitors (Method 1, in vitro phosphate-release absorbance assay)
Assay type: biochemical
Conditions: inhibitor conc at 1 mM stock, 1 hr room temperature, absorbance 630 nm; rounded average of two assay results
How it was run: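 Phosphate-release colorimetric assay (Windsor method) in 60 mM Hepes, 3 mM MgCl2, 3 mM CaCl2, 3 mM ATP, pH 6.5, with compound or DMSO control added. Released phosphate developed with ammonium molybdate and ascorbic acid/TCA, then stopped with citrate/acetic acid.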

Compound | % Inhibition of Apyrase [%]
Cc1ccc(S(=O)(=O)Nc2ccc(F)cc2)cc1C(=O)N1c2ccccc2CC1C (centres unmarked) [I-544, N-(4-fluorophenyl)-4-methyl-3-(2-methylindoline-1-carbonyl)benzenesulfonamide] | 54
Cc1cccc(NS(=O)(=O)c2cccc(C(=O)Nc3ccc(Br)c(C)c3)c2)c1 [I-491, N-(4-bromo-3-methylphenyl)-3-(N-(m-tolyl)sulfamoyl)benzamide] | 58
COc1ccc(S(=O)(=O)N2CCc3ccccc32)cc1C(=O)Nc1cccc(Br)c1 [I-525, N-(3-bromophenyl)-5-(indolin-1-ylsulfonyl)-2-methoxybenzamide] | 55
N#Cc1cccc(S(=O)(=O)Nc2cccc(C(=O)Nc3cccc(C(F)(F)F)c3)c2)c1 [I-196, 3-((3-cyanophenyl)sulfonamido)-N-(3-(trifluoromethyl)phenyl)benzamide] | 74
CC1Cc2ccccc2N1S(=O)(=O)c1cccc(C(=O)Nc2cccc3ncccc23)c1 (centres unmarked) [I-602, 3-((2-methylindolin-1-yl)sulfonyl)-N-(quinolin-5-yl)benzamide] | 28
O=C(Nc1cccc(NS(=O)(=O)c2ccc(Cl)cc2)c1)c1cc(F)ccc1F [I-212, N-(3-((4-chlorophenyl)sulfonamido)phenyl)-2,5-difluorobenzamide] | 69
O=C(c1cc(S(=O)(=O)Nc2cccc(Cl)c2)c(Cl)cc1Cl)N1CCCc2ccccc21 [I-551, 2,4-dichloro-N-(3-chlorophenyl)-5-(1,2,3,4-tetrahydroquinoline-1-carbonyl)benzenesulfonamide] | 53
C#Cc1cccc(NC(=O)c2ccccc2S(=O)(=O)N(C)c2ccccc2)c1 [I-352, N-(3-ethynylphenyl)-2-(N-methyl-N-phenylsulfamoyl)benzamide] | 48
C#Cc1cccc(NC(=O)c2cccc(S(=O)(=O)Nc3ccc(Cl)cc3)c2)c1 [I-237, 3-(N-(4-chlorophenyl)sulfamoyl)-N-(3-ethynylphenyl)benzamide] | 76
Cc1ccc(N(C)S(=O)(=O)c2cccc(C(=O)N3CCc4ccccc43)c2)cc1 [I-558, 3-(indoline-1-carbonyl)-N-methyl-N-(p-tolyl)benzenesulfonamide] | 52
O=C(Nc1cccc(NS(=O)(=O)c2ccc(Cl)cc2)c1)c1ccccc1 [I-344, N-(3-((4-chlorophenyl)sulfonamido)phenyl)benzamide] | 56
COc1ccc(OC)c(NC(=O)c2cccc(S(=O)(=O)N3c4ccccc4CC3C)c2)c1 (centres unmarked) [I-429, N-(2,5-dimethoxyphenyl)-3-((2-methylindolin-1-yl)sulfonyl)benzamide] | 73
O=C(Nc1cccc(C(F)(F)F)c1)c1ccc(S(=O)(=O)Nc2ccccc2F)cc1 [I-407, 4-(N-(2-fluorophenyl)sulfamoyl)-N-(3-(trifluoromethyl)phenyl)benzamide] | 30
O=C(Nc1ccc(Br)cc1)c1cccc(S(=O)(=O)N2CCc3ccccc32)c1 [I-189, N-(4-bromophenyl)-3-(indolin-1-ylsulfonyl)benzamide] | 70
COc1ccc(S(=O)(=O)N2CCc3ccccc32)cc1C(=O)Nc1cccc(C#N)c1 [I-442, N-(3-cyanophenyl)-5-(indolin-1-ylsulfonyl)-2-methoxybenzamide] | 61
O=C(c1cccc(S(=O)(=O)Nc2ccc(OCc3ccccc3)cc2)c1)N1CCc2ccccc21 [I-521, N-(4-(benzyloxy)phenyl)-3-(indoline-1-carbonyl)benzenesulfonamide] | 56
COc1cc(Cl)c(C)cc1NC(=O)c1ccccc1S(=O)(=O)N(C)c1ccccc1 [I-350, N-(4-chloro-2-methoxy-5-methylphenyl)-2-(N-methyl-N-phenylsulfamoyl)benzamide] | 66
COc1ccc([N+](=O)[O-])cc1NC(=O)c1cccc(S(=O)(=O)Nc2cc(C(F)(F)F)ccc2Cl)c1 [I-251, 3-(N-(2-chloro-5-(trifluoromethyl)phenyl)sulfamoyl)-N-(2-methoxy-5-nitrophenyl)benzamide] | 62
O=C(Nc1cccc(C(F)(F)F)c1)c1cccc(NS(=O)(=O)c2cccs2)c1 [I-642, 3-(thiophene-2-sulfonamido)-N-(3-(trifluoromethyl)phenyl)benzamide] | 55

Other lines, results leading:

% Inhibition of Apyrase [%] | Compound
60 | O=C(Nc1ccc(S(=O)(=O)Nc2ccc(Cl)cc2)cc1)c1cccc(C(F)(F)F)c1 [I-976, N-(4-(N-(4-chlorophenyl)sulfamoyl)phenyl)-3-(trifluoromethyl)benzamide]
57 | COc1ccccc1N(C)S(=O)(=O)c1ccc(C(=O)N2CCc3ccc([N+](=O)[O-])cc32)cc1 [I-869, N-(2-methoxyphenyl)-N-methyl-4-(6-nitroindoline-1-carbonyl)benzenesulfonamide]
18 | O=C(Nc1ccccc1NS(=O)(=O)c1cccs1)c1cc(Cl)ccc1F [I-840, 5-chloro-2-fluoro-N-(2-(thiophene-2-sulfonamido)phenyl)benzamide]
63 | Cc1ccc(C(=O)Nc2ccc(S(=O)(=O)Nc3ccc(F)cc3)cc2)cc1Br [I-974, 3-bromo-N-(4-(N-(4-fluorophenyl)sulfamoyl)phenyl)-4-methylbenzamide]
37 | CN(C(=O)c1ccccc1S(=O)(=O)N(C)c1ccccc1)c1ccccc1 [I-815, N-methyl-2-(N-methyl-N-phenylsulfamoyl)-N-phenylbenzamide]
14 | NS(=O)(=O)c1ccc(NC(=O)c2ccc(NS(=O)(=O)c3ccc(F)c(Cl)c3)cc2)cc1 [I-961, 4-((3-chloro-4-fluorophenyl)sulfonamido)-N-(4-sulfamoylphenyl)benzamide]
59 | O=C(Nc1cccc(S(=O)(=O)Nc2ccc(Cl)cc2)c1)c1ccoc1 [I-712, N-(3-(N-(4-chlorophenyl)sulfamoyl)phenyl)furan-3-carboxamide]
54 | O=C(Nc1cccc(S(=O)(=O)Nc2ccccc2Cl)c1)c1ccc2ccccc2n1 [I-734, N-(3-(N-(2-chlorophenyl)sulfamoyl)phenyl)quinoline-2-carboxamide]
53 | COc1ccc(NC(=O)c2cccc(S(=O)(=O)Nc3ccc4c(c3)OCO4)c2)cc1Cl [I-882, 3-(N-(benzo[d][1,3]dioxol-5-yl)sulfamoyl)-N-(3-chloro-4-methoxyphenyl)benzamide]
56 | Cc1ccc(S(=O)(=O)Nc2ccc(C(=O)Nc3ccc(F)cc3)cc2)cc1C [I-927, 4-((3,4-dimethylphenyl)sulfonamido)-N-(4-fluorophenyl)benzamide]
36 | CN(c1ccccc1)S(=O)(=O)c1cccc(NC(=O)c2ccc3ccccc3n2)c1 [I-754, N-(3-(N-methyl-N-phenylsulfamoyl)phenyl)quinoline-2-carboxamide]
47 | Cc1ccnn1-c1ccc(C(=O)Nc2ccc(NS(=O)(=O)c3ccc4c(c3)OCCO4)cc2)cc1 [I-1003, N-(4-((2,3-dihydrobenzo[b][1,4]dioxine)-6-sulfonamido)phenyl)-4-(5-methyl-1H-pyrazol-1-yl)benzamide]
55 | O=C(c1ccc(NS(=O)(=O)c2ccc(Cl)c([N+](=O)[O-])c2)cc1)N1CCCc2ccccc21 [I-930, 4-chloro-3-nitro-N-(4-(1,2,3,4-tetrahydroquinoline-1-carbonyl)phenyl)benzenesulfonamide]
44 | Cc1ccc(NC(=O)c2ccc(NS(=O)(=O)c3ccc(Br)cc3)cc2)cc1S(=O)(=O)N(C)C [I-945, 4-((4-bromophenyl)sulfonamido)-N-(3-(N,N-dimethylsulfamoyl)-4-methylphenyl)benzamide]
39 | CN(c1ccccc1)S(=O)(=O)c1ccccc1C(=O)Nc1cccc(C(N)=O)c1 [I-814, N-(3-carbamoylphenyl)-2-(N-methyl-N-phenylsulfamoyl)benzamide]
3 | O=C(c1ccc(NS(=O)(=O)c2ccc(F)cc2)cc1)N1CCc2ccccc21 [I-965, 4-fluoro-N-(4-(indoline-1-carbonyl)phenyl)benzenesulfonamide]
29 | COc1ccc([N+](=O)[O-])cc1NS(=O)(=O)c1ccc(C(=O)N2CCc3ccccc32)cc1 [I-892, 4-(indoline-1-carbonyl)-N-(2-methoxy-5-nitrophenyl)benzenesulfonamide]
52 | Cc1cccc(NC(=O)c2ccc(NS(=O)(=O)c3ccc(Br)cc3)cc2)c1 [I-936, 4-((4-bromophenyl)sulfonamido)-N-(m-tolyl)benzamide]
3 | CN(c1ccccc1)S(=O)(=O)c1cccc(NC(=O)c2cc(C3CC3)on2)c1 [I-773, 5-cyclopropyl-N-(3-(N-methyl-N-phenylsulfamoyl)phenyl)isoxazole-3-carboxamide]
21 | O=C(Nc1ccc(Br)cn1)c1cccc(NS(=O)(=O)c2ccc(F)c(Cl)c2)c1 [I-666, N-(5-bromopyridin-2-yl)-3-((3-chloro-4-fluorophenyl)sulfonamido)benzamide]
56 | COc1ccc2c(c1)CCCN2C(=O)c1ccc(S(=O)(=O)Nc2ccccc2C)cc1 [I-872, 4-(6-methoxy-1,2,3,4-tetrahydroquinoline-1-carbonyl)-N-(o-tolyl)benzenesulfonamide]
28 | O=C(Nc1cccc(S(=O)(=O)Nc2cccc(C(F)(F)F)c2)c1)c1cccnc1 [I-758, N-(3-(N-(3-(trifluoromethyl)phenyl)sulfamoyl)phenyl) nicotinamide]

— patent publication US12685312B2, “Sulfonamide apyrase inhibitors” (Texas Crop Science, Inc., priority 2022, dated 2026)
